The numbers were not newly measured in US20110092535A1, “Novel Epilepsy Treatment” (priority 2006, published 2011), which cites them from elsewhere.

In the series the test system is maximal electric shock-induced seizures. As to conditions: rats.

Molecules are shown by their SMILES. Read-outs that look alike come from different tables or passages of the source.

As to `Cc1nccn1CC1CCc2c(c3ccccc3n2C)C1=O` (centres unmarked) [Ondansetron], the “effect against maximal electric shock-induced seizures” value was “ineffective” (higher doses (>2 mg/kg)) and “effective” (low doses).
